From US11345711B2, “8,9-dihydroimidazo[1,2-a]pyrimido[5,4-e]pyrimidin-5(6H)-ones” (IMPACT THERAPEUTICS (SHANGHAI), INC, priority 2016, dated 2022)
pIC50: −log10 of the molar value. Read-outs that look alike come from different tables or passages of the source.

Key:
Wee1 (h) = Wee1 (h) (Homo sapiens, UniProt P30291); experiment: Wee1 kinase (h) detection method, [γ-33P]-ATP filter assay; type: biochemical
NCI-H1299 cells = experiment: MTT based cell viability assay on NCI-H1299 cells; details: Homo sapiens, read-out: IC50, growth inhibition of NCI-H1299 cells
Summary of the method: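 Viability read-out was MTT reduction (0.5 mg/mL, 4 h, absorbance 552/630/690 nm) after 3-day compound exposure at 37 °C of NCI-H1299 cells seeded at 1000 per well. Dilutions spanned 10 μM–0.01 μM in DMSO, final DMSO 1‰. Survival-versus-concentration curves were fitted sigmoidally to give IC50.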

LoVo cells = experiment: MTT based cell viability assay on LoVo cells; details: Homo sapiens, LoVo, 72 h, 3 d, read-out: IC50, growth inhibition of LoVo cells
Summary of the method: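 Inhibition of LoVo proliferation was derived as IC50 from a sigmoidal dose-response fit of cell survival. Readout was MTT (0.5 mg/mL, 4 h) with absorbance at 552/630/690 nm, after 3-day treatment at 37 °C. Eight-point series from 10 μM to 0.01 μM, DMSO control, 1% DMSO final.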

Sequence of Wee1 (h) (P30291 whole entry): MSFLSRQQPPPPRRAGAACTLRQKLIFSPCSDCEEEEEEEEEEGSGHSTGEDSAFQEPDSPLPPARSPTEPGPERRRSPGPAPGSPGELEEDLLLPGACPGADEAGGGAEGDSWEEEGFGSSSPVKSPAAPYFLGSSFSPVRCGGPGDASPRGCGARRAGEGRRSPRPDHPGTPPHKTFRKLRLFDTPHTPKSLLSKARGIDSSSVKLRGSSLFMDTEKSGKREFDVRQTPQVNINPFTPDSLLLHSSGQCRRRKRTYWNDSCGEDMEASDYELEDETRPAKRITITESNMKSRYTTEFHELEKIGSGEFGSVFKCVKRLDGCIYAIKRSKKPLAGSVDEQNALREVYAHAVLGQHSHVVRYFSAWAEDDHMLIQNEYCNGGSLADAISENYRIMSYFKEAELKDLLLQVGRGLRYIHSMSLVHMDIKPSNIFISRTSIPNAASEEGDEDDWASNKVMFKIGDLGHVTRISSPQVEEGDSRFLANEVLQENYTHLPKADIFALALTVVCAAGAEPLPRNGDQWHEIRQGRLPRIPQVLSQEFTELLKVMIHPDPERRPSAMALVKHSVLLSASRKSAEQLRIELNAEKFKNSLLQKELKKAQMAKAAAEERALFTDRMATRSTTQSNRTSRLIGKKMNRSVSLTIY

SMILES | Inh. (%) of Wee1 kinase enzyme activity (Wee1 (h); C 0.01 μm compound) [%] | Inh. (%) of Wee1 kinase enzyme activity (Wee1 (h); C 0.1 μm compound) [%] | Inh. (%) of Wee1 kinase enzyme activity (Wee1 (h); C 1 μm compound) [%] | pIC50 (NCI-H1299 cells; NCI-H1299, NCI-H1299 cells) | pIC50 (LoVo cells) | pIC50 (NCI-H1299 cells; NCI-H1299 cells)
Cc1cc(Nc2ncc3c(n2)N2CCN=C2N(c2c(F)cccc2Cl)C3=O)cc(C(F)(F)F)c1N1CCN(C)CC1 [Example 128, 6-(2-Chloro-6-fluorophenyl)-2-((3-methyl-4-(4-methylpiperazin-1-yl)-5-(trifluoromethyl)phenyl)amino)-8,9-dihydroimidazo[1,2-a]pyrimido[5,4-e]pyrimidin-5(6H)-one] | 8 | 61 | 89 | 6.51 | 7.16 | 
COc1cc(Nc2ncc3c(n2)N2CCN=C2N(c2c(F)cccc2Cl)C3=O)cc(C)c1N1CCN(C)CC1 [Example 129, 6-(2-Chloro-6-fluorophenyl)-2-((3-methoxy-5-methyl-4-(4-methylpiperazin-1-yl)phenyl)amino)-8,9-dihydroimidazo[1,2-a]pyrimido[5,4-e]pyrimidin-5(6H)-one] | 26 | 73 | 93 | 7.11 | 7.15 | 
CN1CCc2c(Cl)cc(Nc3ncc4c(n3)N3CCN=C3N(c3c(Cl)cccc3Cl)C4=O)cc2C1 [Example 130, 6-(2,6-Dichlorophenyl)-2-((5-chloro-2-methyl-1,2,3,4-tetrahydroisoquinolin-7-yl)amino)-8,9-dihydroimidazo[1,2-a]pyrimido[5,4-e]pyrimidin-5(6H)-one] |  |  | 93 |  | 6.20 | 6.61
Cc1cc(Nc2ncc3c(n2)N2CCN=C2N(c2c(Cl)cccc2Cl)C3=O)cc2c1CCN(C)C2 [Example 131, 6-(2,6-Dichlorophenyl)-2-((2,5-dimethyl-1,2,3,4-tetrahydroisoquinolin-7-yl)amino)-8,9-dihydroimidazo[1,2-a]pyrimido[5,4-e]pyrimidin-5(6H)-one] | 27 | 89 | 100 | 7.23 | 6.73 | 
Cc1cc(Nc2ncc3c(n2)N2CCN=C2N(c2c(Cl)cccc2Cl)C3=O)cc2c1C(C)(C)CN(C)C2 [Example 133, 6-(2,6-Dichlorophenyl)-2-((2,4,4,5-tetramethyl-1,2,3,4-tetrahydroisoquinolin-7-yl)amino)-8,9-dihydroimidazo[1,2-a]pyrimido[5,4-e]pyrimidin-5(6H)-one] |  |  | 95 | 7.34 | 6.78 | 
C[C@@H]1CN(c2c(Cl)cc(Nc3ncc4c(n3)N3CCN=C3N(c3c(Cl)cccc3Cl)C4=O)cc2Cl)C[C@H](C)N1C [Example 136, 6-(2,6-Dichlorophenyl)-2-((3,5-dichloro-4-((3S,5R)-3,4,5-trimethylpiperazin-1-yl)phenyl)amino)-8,9-dihydroimidazo[1,2-a]pyrimido[5,4-e]pyrimidin-5(6H)-one] | 36 | 75 | 94 | 6.51 | 6.67 | 
Cc1cc(Nc2ncc3c(n2)N2CCN=C2N(c2c(Cl)cccc2Cl)C3=O)cc(Cl)c1N1C[C@@H](C)N(C)[C@@H](C)C1 [Example 137, 6-(2,6-Dichlorophenyl)-2-((3-chloro-5-methyl-4-((3S,5R)-3,4,5-trimethylpiperazin-1-yl)phenyl)amino)-8,9-dihydroimidazo[1,2-a]pyrimido[5,4-e]pyrimidin-5(6H)-one] | 20 | 78 | 96 | 6.91 | 6.94 | 
CN(C)C1CCN(c2ccc(Nc3ncc4c(n3)N3CCN=C3N(c3c(Cl)cccc3Cl)C4=O)cc2)CC1 [Example 138, 6-(2,6-Dichlorophenyl)-2-((4-(4-(dimethylamino)piperidin-1-yl)phenyl)amino)-8,9-dihydroimidazo[1,2-a]pyrimido[5,4-e]pyrimidin-5(6H)-one] | 22 | 77 | 96 | 6.77 | 6.70 | 
CN(C)C1CCN(c2ccc(Nc3ncc4c(n3)N3CCN=C3N(c3c(Cl)cccc3Cl)C4=O)cc2Cl)CC1 [Example 139, 6-(2,6-Dichlorophenyl)-2-((3-chloro-4-(4-(dimethylamino)piperidin-1-yl)phenyl)amino)-8,9-dihydroimidazo[1,2-a]pyrimido[5,4-e]pyrimidin-5(6H)-one] | 31 | 81 | 95 | 7.07 | 7.34 | 
CN(C)C1CCN(c2ccc(Nc3ncc4c(n3)N3CCN=C3N(c3c(Cl)cccc3Cl)C4=O)cc2Br)CC1 [Example 140, 6-(2,6-Dichlorophenyl)-2-((3-bromo-4-(4-(dimethylamino)piperidin-1-yl)phenyl)amino)-8,9-dihydroimidazo[1,2-a]pyrimido[5,4-e]pyrimidin-5(6H)-one] | 32 | 82 | 98 | 7.03 | 7.24 | 
CN(C)C1CCN(c2c(Cl)cc(Nc3ncc4c(n3)N3CCN=C3N(c3c(Cl)cccc3Cl)C4=O)cc2Cl)CC1 [Example 142, 6-(2,6-Dichlorophenyl)-2-((3,5-dichloro-4-(4-(dimethylamino)piperidin-1-yl)phenyl)amino)-8,9-dihydroimidazo[1,2-a]pyrimido[5,4-e]pyrimidin-5(6H)-one] | 22 | 75 | 95 | 6.96 | 7.29 | 
COc1cc(Nc2ncc3c(n2)N2CCN=C2N(c2c(Cl)cccc2Cl)C3=O)cc(Cl)c1N1CCC(N(C)C)CC1 [Example 144, 6-(2,6-Dichlorophenyl)-2-((3-chloro-4-(4-(dimethylamino)piperidin-1-yl)-5-methoxyphenyl)amino)-8,9-dihydroimidazo[1,2-a]pyrimido[5,4-e]pyrimidin-5(6H)-one] | 19 | 76 | 97 | 6.85 | 7.21 | 
CN1CCN(c2ccc(Nc3ncc4c(n3)N3CCN=C3N(c3c(Cl)cccc3Cl)C4=O)cc2Br)CC1 [Example 145, 6-(2,6-Dichlorophenyl)-2-((3-bromo-4-(4-methylpiperazin-1-yl)phenyl)amino)-8,9-dihydroimidazo[1,2-a]pyrimido[5,4-e]pyrimidin-5(6H)-one] | 21 | 72 | 97 |  | 7.07 | 6.66
COc1cc(Nc2ncc3c(n2)N2CCN=C2N(c2c(Cl)cccc2Cl)C3=O)ccc1N1CCN(C)CC1 [Example 146, 6-(2,6-Dichlorophenyl)-2-((3-methoxy-4-(4-methylpiperazin-1-yl)phenyl)amino)-8,9-dihydroimidazo[1,2-a]pyrimido[5,4-e]pyrimidin-5(6H)-one] | 9 | 85 | 95 |  | 7.08 | 6.60
